Reference: patent publication US12252701B2, “Chimeric antigen receptor T cell therapy” (KITE PHARMA, INC., priority 2020, dated 2025)

Columns and labels:
[1] = tested on: phospho-STAT-1, -3 and -5 in CD4, CD8 T cells and monocytes (CAR T product, PBMCs); assay: Intracellular phospho-STAT-1, -3, -5 by flow cytometry in immune cell subsets of CAR T product and PBMCs; assay type: cell-based, human; parameters: Primary Cell IL-6 pSTAT5 signaling (% inhibition) / Primary Cell IL-6 pSTAT1 signaling (% inhibition) / Primary Cell IL-6 pSTAT3 signaling (% inhibition) / Primary cell GM-CSF-pSTAT5, inhibition: concentration or dose not given beside the values
Description: Further experiments were performed to look at impacts of JAK inhibitors on STAT phosphorylation in various immune cell subsets.

[2] = tested on: phospho-STAT panel (pSTAT3/4/5), CD3+ T cells; assay: phospho-STAT induction by IL-6, MesoScale Discovery phospho-STAT panel; assay type: cell-based, human; settings: CD3+ T cells
Summary of the method: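 CD19 CAR-T cells, PBMC or CD3+ T cells, rested overnight, were stimulated at 700,000 cells/well with 100 ng/ml IL6 plus compound for 20 minutes at 37° C. Cells were lysed in Tris buffer and pSTAT3/4/5 measured by MSD electrochemiluminescence immunoassay.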

[3] = tested on: NALM6.GFP.LUC.CD19 target cells; assay: Serial killing assay of CAR-T, percent cytotoxicity by luciferase detection; settings: two different E:T ratios, dose titration
in vitro = settings: human, CAR-T cells

SMILES: CC[C@@H]1CN(C(=O)NCC(F)(F)F)C[C@@H]1c1cnc2cnc3[nH]ccc3n12 [upadacitinib]
- Primary Cell IL-6 pSTAT1 signaling (% inhibition) ([1]; CD4 CART cells): 49%
- Primary Cell IL-6 pSTAT3 signaling (% inhibition) ([1]; CD4 CART cells): 76%
- Primary Cell IL-6 pSTAT5 signaling (% inhibition) ([1]; CD4 CART cells): 60%
- Primary Cell IL-6 pSTAT1 signaling (% inhibition) ([1]; CD8 CART cells): 13%
- Primary Cell IL-6 pSTAT3 signaling (% inhibition) ([1]; CD8 CART cells): 48%
- Primary Cell IL-6 pSTAT5 signaling (% inhibition) ([1]; CD8 CART cells): 52%
- Primary cell GM-CSF-pSTAT5, inhibition ([1]; Monocytes within bulk PBMCs): 97%
- Primary Cell IL-6 pSTAT1 signaling (% inhibition) ([1]; PBMC CD4 T cells): 74%
- Primary Cell IL-6 pSTAT3 signaling (% inhibition) ([1]; PBMC CD4 T cells): 91%
- Primary Cell IL-6 pSTAT5 signaling (% inhibition) ([1]; PBMC CD4 T cells): 87%
- Primary Cell IL-6 pSTAT1 signaling (% inhibition) ([1]; PBMC CD8 T cells): 32%
- Primary Cell IL-6 pSTAT3 signaling (% inhibition) ([1]; PBMC CD8 T cells): 70%
- Primary Cell IL-6 pSTAT5 signaling (% inhibition) ([1]; PBMC CD8 T cells): 56%
- Primary Cell IL-6 pSTAT1 signaling (% inhibition) ([1]; PBMC Monocytes): 48%
- Primary Cell IL-6 pSTAT3 signaling (% inhibition) ([1]; PBMC Monocytes): 93%
- Primary Cell IL-6 pSTAT5 signaling (% inhibition) ([1]; PBMC Monocytes): 48%
- Primary cell GM-CSF-pSTAT5, inhibition ([1]; T cells within bulk PBMCs): 47%
- pSTAT3 ([2]; 100 ng/ml IL-6 + drug 10 uM, 20 min, MSD signal (No stim. 689, IL-6 alone 33641)): 2450
- pSTAT4 ([2]; 100 ng/ml IL-6 + drug 10 uM, 20 min, MSD signal (No stim. 1964, IL-6 alone 15405)): 2322
- pSTAT5 ([2]; 100 ng/ml IL-6 + drug 10 uM, 20 min, MSD signal (No stim. 9210, IL-6 alone 17743)): 1354
- pSTAT3 ([2]; IL-6 + drug 0.125 uM, MSD signal (No stim. 689, IL-6 alone 33641)): 3605
- pSTAT4 ([2]; IL-6 + drug 0.125 uM, MSD signal (No stim. 1964, IL-6 alone 15405)): 2819
- pSTAT5 ([2]; IL-6 + drug 0.125 uM, MSD signal (No stim. 9210, IL-6 alone 17743)): 1757
- pSTAT3 ([2]; IL-6 + drug 0.5 uM, MSD signal (No stim. 689, IL-6 alone 33641)): 2207
- pSTAT4 ([2]; IL-6 + drug 0.5 uM, MSD signal (No stim. 1964, IL-6 alone 15405)): 2397
- pSTAT5 ([2]; IL-6 + drug 0.5 uM, MSD signal (No stim. 9210, IL-6 alone 17743)): 1528
- pSTAT3 ([2]; IL-6 + drug 1 uM, MSD signal (No stim. 689, IL-6 alone 33641)): 2393
- pSTAT4 ([2]; IL-6 + drug 1 uM, MSD signal (No stim. 1964, IL-6 alone 15405)): 2417
- pSTAT5 ([2]; IL-6 + drug 1 uM, MSD signal (No stim. 9210, IL-6 alone 17743)): 1534
- pSTAT3 ([2]; IL-6 + drug 5 uM, MSD signal (No stim. 689, IL-6 alone 33641)): 2290
- pSTAT4 ([2]; IL-6 + drug 5 uM, MSD signal (No stim. 1964, IL-6 alone 15405)): 2229
- pSTAT5 ([2]; IL-6 + drug 5 uM, MSD signal (No stim. 9210, IL-6 alone 17743)): 1452
- pSTAT3 ([2]; lower dose titration, IL-6 + drug 3.125 nM, MSD signal (No stim. 123, IL-6 alone 5767)): 4615
- pSTAT4 ([2]; lower dose titration, IL-6 + drug 3.125 nM, MSD signal (No stim. 281, IL-6 alone 3624)): 2687
- pSTAT5 ([2]; lower dose titration, IL-6 + drug 3.125 nM, MSD signal (No stim. 324, IL-6 alone 2352)): 1166
- pSTAT3 ([2]; lower dose titration, IL-6 + drug 6.25 nM, MSD signal (No stim. 123, IL-6 alone 5767)): 3572
- pSTAT4 ([2]; lower dose titration, IL-6 + drug 6.25 nM, MSD signal (No stim. 281, IL-6 alone 3624)): 2797
- pSTAT5 ([2]; lower dose titration, IL-6 + drug 6.25 nM, MSD signal (No stim. 324, IL-6 alone 2352)): 1123
- pSTAT3 ([2]; lower dose titration, IL-6 + drug 12.5 nM, MSD signal (No stim. 123, IL-6 alone 5767)): 2560
- pSTAT4 ([2]; lower dose titration, IL-6 + drug 12.5 nM, MSD signal (No stim. 281, IL-6 alone 3624)): 1607
- pSTAT5 ([2]; lower dose titration, IL-6 + drug 12.5 nM, MSD signal (No stim. 324, IL-6 alone 2352)): 696
- pSTAT3 ([2]; lower dose titration, IL-6 + drug 25 nM, MSD signal (No stim. 123, IL-6 alone 5767)): 1495
- pSTAT4 ([2]; lower dose titration, IL-6 + drug 25 nM, MSD signal (No stim. 281, IL-6 alone 3624)): 1248
- pSTAT5 ([2]; lower dose titration, IL-6 + drug 25 nM, MSD signal (No stim. 324, IL-6 alone 2352)): 564
- pSTAT3 ([2]; lower dose titration, IL-6 + drug 50 nM, MSD signal (No stim. 123, IL-6 alone 5767)): 713
- pSTAT4 ([2]; lower dose titration, IL-6 + drug 50 nM, MSD signal (No stim. 281, IL-6 alone 3624)): 860
- pSTAT5 ([2]; lower dose titration, IL-6 + drug 50 nM, MSD signal (No stim. 324, IL-6 alone 2352)): 460
- pSTAT3 ([2]; lower dose titration, IL-6 + drug 100 nM, MSD signal (No stim. 123, IL-6 alone 5767)): 319
- pSTAT4 ([2]; lower dose titration, IL-6 + drug 100 nM, MSD signal (No stim. 281, IL-6 alone 3624)): 555
- pSTAT5 ([2]; lower dose titration, IL-6 + drug 100 nM, MSD signal (No stim. 324, IL-6 alone 2352)): 375
- impact on CAR-T serial killing (percent cytotoxicity) [3]: negative impacts
- viability at 0 day, 50 nM (in vitro): 75%
- viability at 0 day, 100 nM (in vitro): 75%
- viability at 4 day, 50 nM (in vitro): 63.2%
- viability at 4 day, 100 nM (in vitro): 59.9%
- viability at 8 day, 50 nM (in vitro): 65.3%
- viability at 8 day, 100 nM (in vitro): 62%
- viability at 12 day, 50 nM (in vitro): 79%
- viability at 12 day, 100 nM (in vitro): 67.5%
